The experiment has as its system Plasmodium berghei. As to the kind of experiment: Luciferase/luciferin-expressing antifolate-resistant parasites were used to infect a culture of HepG2 cells that were pre-incubated with compounds. Infected hepatocytes emit light due to the luciferase reaction. Assay results are presented as the percent inhibition of light emission compared to control. […]. Format: functional. Particulars: sporozoite; for IC90: read-out: LUCIFERASE INFECTION ASSAY - IC90.

Where [1] appears, read: read-out: LUCIFERASE INFECTION ASSAY - IC50.

Where only a bound is given, the exact number is not on record here.

What is called IC50 is the midpoint of a concentration-inhibition curve. Usually IC90 stands for the concentration needed for an effect of 90%. Turning to `Cc1ccc(C)c(Sc2ccc(S(=O)(=O)NCCN(C)C)cc2)c1`, the IC90 was above 10 µM. Moreover, the IC50 under setting [1] is above 10 µM. Regarding `CN(C)c1cccc(-c2cnc3sc(NCc4ccc(F)cc4)nn23)c1`, the IC90 is above 8.98 µM. Where the note is “FFLUC_HILL_SLOPE 4.01, FFLUC_R_SQUARED 0.615, PBLUC_HILL_SLOPE 7.46, PBLUC_R_SQUARED 0.677, read-out: LUCIFERASE INFECTION ASSAY - IC50”, the 50% inhibitory concentration (IC50) is 7.83 µM. Consider `CCOc1cccc(/C=C/c2ccc3cccc(O)c3n2)c1O`, for which the concentration for an effect of 90% (IC90) is 10.6 µM. Under “PBLUC_HILL_SLOPE 16.2, PBLUC_R_SQUARED 0.451, read-out: LUCIFERASE INFECTION ASSAY - IC50”, the IC50 was 9.23 µM.

In the case of `CCN1CCC(Nc2cnc3c(c2)c(NC(=O)Cc2ccccc2)c(C(=O)OC)n3CC(C)C)CC1`, the IC90 was above 6.71 µM. For the same compound, under setting [1], the IC50 worked out at 5.59 µM. On to `CCCCCCN(C(=O)Cn1ccsc1=N)c1nc(-c2ccccc2)cs1`, for which the IC90 is above 10 µM. The IC50 (FFLUC_HILL_SLOPE 258, FFLUC_R_SQUARED 0.634, read-out: LUCIFERASE INFECTION ASSAY - IC50) was above 10 µM. On to `COc1cc(C(=O)OC(C)C(=O)Nc2sccc2C(N)=O)ccc1C` (stereo not given), for which the IC90 is above 10 µM. Further, under setting [1], the IC50 is above 10 µM. For `O=[N+]([O-])c1ccsc1Sc1ccc(C(F)(F)F)cn1`, the IC90 was above 10.8 µM. Besides, under “FFLUC_HILL_SLOPE 11.2, FFLUC_R_SQUARED 0.0124, HEPG2TOX_HILL_SLOPE 0.715, HEPG2TOX_R_SQUARED 0.731, read-out: LUCIFERASE INFECTION ASSAY - IC50”, the concentration for half-maximal inhibition (IC50) was above 10.8 µM. Regarding `CN(C)c1ccc(-c2cnn3c(Nc4ccc(Oc5ccccc5)cc4)ccnc23)cc1`, the 90% effect concentration (IC90) is above 7.83 µM. Also, the IC50 (PBLUC_HILL_SLOPE 2.36, PBLUC_R_SQUARED 0.164, read-out: LUCIFERASE INFECTION ASSAY - IC50) turned out to be 6.65 µM.

As to `CSc1sc(-c2ccnc(SCc3cccc(F)c3)n2)c2c1C(=O)CCC2`, the IC90 was above 7.92 µM. Besides, under setting [1], the half-inhibitory concentration (IC50) is above 7.92 µM.

On to `CN(C)c1ccc(-c2cc3c(cn2)nc(Nc2ccccc2)n3C)cc1`, for which the IC90 is 4.23 µM. Also, the IC50 (HEPG2TOX_HILL_SLOPE 15.7, HEPG2TOX_R_SQUARED 0.892, PBLUC_HILL_SLOPE 14.7, PBLUC_R_SQUARED 0.425, read-out: LUCIFERASE INFECTION ASSAY - IC50) was 3.64 µM. As to `Cc1cccc(C(=O)Nc2ccc(N3CCc4sccc4C3)nc2)c1[N+](=O)[O-]`, the IC90 is above 10 µM. Further, the concentration for half-maximal inhibition (IC50) (HEPG2TOX_HILL_SLOPE 2.87, HEPG2TOX_R_SQUARED 0.919, PBLUC_HILL_SLOPE 1.54, PBLUC_R_SQUARED 0.645, read-out: LUCIFERASE INFECTION ASSAY - IC50) came to 2.52 µM. Regarding `O=S(=O)(NCCNc1cnccn1)c1ccc(OC(F)(F)F)cc1`, the IC90 is above 10 µM. The IC50 under setting [1] was above 10 µM. Turning to `CN(C)c1ccc(C2CC(=O)c3ccccc3N2)cc1` (stereo not given), the IC90 was above 12.4 µM. The IC50 under setting [1] was above 12.4 µM. As for `NS(=O)(=O)c1ccc(CNC(=O)Cn2cnc3ccccc3c2=O)cc1`, the IC90 is above 8.86 µM. Moreover, under “PBLUC_HILL_SLOPE 11.1, PBLUC_R_SQUARED 0.12, read-out: LUCIFERASE INFECTION ASSAY - IC50”, the IC50 was above 8.86 µM. Take `CCN1C(=O)N(Cc2cccc(OC)c2)C(=O)C12CCN(Cc1ccc3c(c1)Cc1ccccc1-3)CC2`: the IC90 is above 6.66 µM. Besides, under “HEPG2TOX_HILL_SLOPE 11.9, HEPG2TOX_R_SQUARED 0.897, PBLUC_HILL_SLOPE 2.37, PBLUC_R_SQUARED 0.639, read-out: LUCIFERASE INFECTION ASSAY - IC50”, the IC50 worked out at 3.29 µM. Turning to `CS/C(Nc1cccc(C(F)(F)F)c1)=C(/C#N)S(=O)(=O)c1ccc(Cl)cc1`, the concentration for an effect of 90% (IC90) was above 7.62 µM. Where the note is “FFLUC_HILL_SLOPE 30.1, FFLUC_R_SQUARED 0.771, HEPG2TOX_HILL_SLOPE 1.92, HEPG2TOX_R_SQUARED 0.988, PBLUC_HILL_SLOPE 2.74, PBLUC_R_SQUARED 0.0319, read-out: LUCIFERASE INFECTION ASSAY - IC50”, the IC50 was 4.34 µM. Turning to `O=C(NC1CCN(c2ccc(S(=O)(=O)C(F)(F)F)cc2)CC1)C1CC1`, the IC90 was found to be 2.59 µM. Further, the IC50 (HEPG2TOX_HILL_SLOPE 1.52, HEPG2TOX_R_SQUARED 0.775, PBLUC_HILL_SLOPE 1.87, PBLUC_R_SQUARED 0.699, read-out: LUCIFERASE INFECTION ASSAY - IC50) was 0.799 µM.

Regarding `CCc1ccc(-c2nc(Cn3cnc4ccccc4c3=O)cs2)cc1`, the IC90 is above 10 µM. Under setting [1], the IC50 is above 10 µM. Turning to `OCC1CCCN(c2nn3cc(-c4ccccc4)nc3s2)C1` (stereo not given), the IC90 was determined as 0.00758 µM. For the compound `O=[N+]([O-])c1cc(Cl)ccc1N1CCN(c2ncnc3sc4c(c23)CCC4)CC1`, the IC90 was above 10 µM. Also, the IC50 (FFLUC_HILL_SLOPE 15.4, FFLUC_R_SQUARED 0.646, read-out: LUCIFERASE INFECTION ASSAY - IC50) is above 10 µM. On to `CN(C)C(=O)c1ccc(-c2ccnc3n[nH]c(-c4ccc(N(C)C)cc4)c23)cc1`, for which the IC90 stood at 5.06 µM. Where the note is “HEPG2TOX_HILL_SLOPE 14.4, HEPG2TOX_R_SQUARED 0.857, PBLUC_HILL_SLOPE 6.94, PBLUC_R_SQUARED 0.445, read-out: LUCIFERASE INFECTION ASSAY - IC50”, the IC50 was 3.69 µM. Consider `CC1CCN(Cc2nc(Oc3cccc4c3OC(C)(C)C4)c3c(-c4ccccc4)csc3n2)CC1`, for which the 90% effect concentration (IC90) was above 10 µM. The IC50 under setting [1] is above 10 µM. For `COc1ccccc1-n1c(COc2ccccc2-c2ccccc2)nnc1SC(C(=O)NC(N)=O)C(C)C` (stereo not given), the IC90 was above 10 µM. For the same compound, the half-maximal inhibitory concentration (IC50) (HEPG2TOX_HILL_SLOPE 0.0773, HEPG2TOX_R_SQUARED 0.0989, read-out: LUCIFERASE INFECTION ASSAY - IC50) is above 10 µM. `COc1cccc(/C=N/NC(=S)NC2CC3CCC2C3)c1O` (stereo not given): the IC90 is above 10.3 µM. Besides, the IC50 under setting [1] is above 10.3 µM. `CC(C)Sc1ncccc1C(=O)N1CCN(c2oc(C3CC3)nc2C#N)CC1`: the IC90 was above 10 µM. Moreover, the IC50 under setting [1] is above 10 µM. Turning to `CC(C)c1ccc(CN2CCN(C(=O)CNC(=O)c3ccc(Br)o3)CC2)cc1`, the IC90 is above 10 µM. Moreover, the IC50 (PBLUC_HILL_SLOPE 3.89, PBLUC_R_SQUARED 0.276, read-out: LUCIFERASE INFECTION ASSAY - IC50) was 9.05 µM. Regarding `CN(/N=C/c1cc(Cl)cc(Cl)c1O)c1ccc(C(F)(F)F)cc1[N+](=O)[O-]`, the IC90 was above 8.09 µM. In addition, the half-maximal inhibitory concentration (IC50) under setting [1] was above 8.09 µM. `COc1ccc(-n2c(C)cc(/C=C(\C#N)C(=O)NCC(c3cccs3)N3CCOCC3)c2C)cc1` (stereo not given): the IC90 is above 10 µM. In addition, the IC50 (PBLUC_HILL_SLOPE 6.75, PBLUC_R_SQUARED 0.0585, read-out: LUCIFERASE INFECTION ASSAY - IC50) was above 10 µM.

With `O=C(CCc1nc2ccccc2s1)N(Cc1ccccc1F)C1CC1`, the IC90 is above 10 µM. Moreover, the IC50 under setting [1] was above 10 µM. As to `O=C(NCc1ccc(C(F)(F)F)cc1)Nc1cccc2cnccc12`, the IC90 was above 10 µM. Also, the IC50 (HEPG2TOX_HILL_SLOPE 1.51, HEPG2TOX_R_SQUARED 0.691, read-out: LUCIFERASE INFECTION ASSAY - IC50) is above 10 µM. `Cc1ccc(-c2nc3c(s2)CN(C(=O)c2ccco2)CC3)cc1`: the IC90 is 3.19 µM. Besides, under “PBLUC_HILL_SLOPE 23.5, PBLUC_R_SQUARED 0.61, read-out: LUCIFERASE INFECTION ASSAY - IC50”, the IC50 amounted to 2.9 µM. For the compound `O=S(=O)(c1ccc(Cl)s1)N1CCN(c2ncnc3ccccc23)CC1`, the IC90 is above 10 µM. Moreover, the IC50 (HEPG2TOX_HILL_SLOPE 2.41, HEPG2TOX_R_SQUARED 0.894, PBLUC_HILL_SLOPE 2.42, PBLUC_R_SQUARED 0.407, read-out: LUCIFERASE INFECTION ASSAY - IC50) was found to be 4.98 µM. With `O=C(Nc1ccccc1N1CCOCC1)c1ccc2noc(-c3ccccc3)c2c1`, the concentration for an effect of 90% (IC90) is above 10 µM. Moreover, for the setting “FFLUC_HILL_SLOPE 1.87, FFLUC_R_SQUARED 0.584, PBLUC_HILL_SLOPE 3.85, PBLUC_R_SQUARED 0.483, read-out: LUCIFERASE INFECTION ASSAY - IC50”, the IC50 is 7.96 µM. As for `C/C(=N\NC(N)=S)c1ccc(OCc2ncc(C(F)(F)F)cc2Cl)cc1`, the 90% effect concentration (IC90) was 4.57 µM. For the same compound, the IC50 (FFLUC_HILL_SLOPE 17.3, FFLUC_R_SQUARED 0.0449, HEPG2TOX_HILL_SLOPE 9.24, HEPG2TOX_R_SQUARED 0.314, PBLUC_HILL_SLOPE 1.92, PBLUC_R_SQUARED 0.719, read-out: LUCIFERASE INFECTION ASSAY - IC50) was 1.46 µM.

As to `COc1cccc(-c2cc3c(Nc4cccc(C(C)C)c4)nccc3[nH]2)c1`, the IC90 amounted to 2.26 µM. In addition, the IC50 (HEPG2TOX_HILL_SLOPE 2.2, HEPG2TOX_R_SQUARED 0.959, PBLUC_HILL_SLOPE 4.36, PBLUC_R_SQUARED 0.354, read-out: LUCIFERASE INFECTION ASSAY - IC50) was determined as 1.36 µM.

Turning to `Cc1c(Cl)cccc1-n1c(SCC(=O)N(CCC#N)c2ccccc2)nc2ccccc2c1=O`, the IC90 was above 10 µM. Also, the IC50 (PBLUC_HILL_SLOPE 15.9, PBLUC_R_SQUARED 0.269, read-out: LUCIFERASE INFECTION ASSAY - IC50) was found to be 9.73 µM.

Take `COc1ccc2[nH]c(C)c(-c3csc(NC(=O)c4ccccn4)n3)c2c1`: the IC90 was above 9.06 µM. The IC50 (PBLUC_HILL_SLOPE 10.6, PBLUC_R_SQUARED 0.566, read-out: LUCIFERASE INFECTION ASSAY - IC50) was 7.84 µM. For the compound `Cc1ccc(S(=O)(=O)NN=c2nc[nH]c3sccc23)cc1`, the IC90 was found to be 5.7 µM. Besides, the half-maximal inhibitory concentration (IC50) under setting [1] was 2.59 µM.

For the origin of these results see ChEMBL document CHEMBL4483862, “Open-source discovery of chemical leads for next-generation chemoprotective antimalarials” (2018).
